Drawing on patent US8163771B2, “11 β-HSD1 modulators” (Exelixis, Inc., priority 2008, dated 2012), this text covers IC50 for ten molecules.

The target of the assay is T1, recombinant human 11 β-HSD1 (Homo sapiens, UniProt P28845).
T1 construct: made in house; host or cells: E. coli
T1 sequence (P28845 whole entry): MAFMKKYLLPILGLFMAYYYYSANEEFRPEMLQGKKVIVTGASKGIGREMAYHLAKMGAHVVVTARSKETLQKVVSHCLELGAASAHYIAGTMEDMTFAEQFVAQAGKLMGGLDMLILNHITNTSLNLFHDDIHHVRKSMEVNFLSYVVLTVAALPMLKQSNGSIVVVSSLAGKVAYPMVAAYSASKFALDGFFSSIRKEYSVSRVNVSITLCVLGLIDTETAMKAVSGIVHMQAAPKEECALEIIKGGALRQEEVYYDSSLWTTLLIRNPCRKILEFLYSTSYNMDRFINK
As to the kind of experiment: 11 β-HSD1 SPA Assay (Scintillation Proximity Assay). In kind it is biochemical. In short, it runs like this: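 E. coli-expressed human enzyme (30-100 nM) with tritiated cortisone 40 nM and NADPH 1 mM in HEPES buffer pH7.4, 2 hours at room temperature. Stopped with protein A SPA beads carrying anti-cortisol antibody and glycyrrhetinic acid; counted after overnight incubation. IC50 from percent inhibition between no-enzyme and no-compound signals.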
For the molecule `CC(C)(Oc1ccc(C(C)(C)O)cc1Cl)C(=O)N[C@H]1C[C@H]2CC[C@@H](C1)N2c1ccc(C(=O)NCC(F)F)cn1` [Example 471, 6-[3-endo-({2-[2-chloro-4-(2-hydroxypropan-2-yl)phenoxy]-2-methylpropanoyl}amino)-8-azabicyclo[3.2.1]oct-8-yl]-N-(2,2-difluoroethyl)pyridine-3-carboxamide], the half-maximal inhibitory concentration (IC50) is below 200 nM.
Regarding `CC(C)(Oc1cc(C(C)(C)O)c(F)cc1Cl)C(=O)N[C@H]1C[C@H]2CC[C@@H](C1)N2c1ccc(C(=O)NCC(F)F)cn1` [Example 472, 6-[3-endo-({2-[2-chloro-4-fluoro-5-(2-hydroxypropan-2-yl)phenoxy]-2-methylpropanoyl}amino)-8-azabicyclo[3.2.1]oct-8-yl]-N-(2,2-difluoroethyl)pyridine-3-carboxamide], the IC50 is below 200 nM.
Consider `CC(C)(Oc1cc(C(C)(C)O)c(Cl)cc1Cl)C(=O)N[C@H]1C[C@H]2CC[C@@H](C1)N2c1ccc(C(N)=O)cn1` [Example 473, 6-[3-endo-({2-[2,4-dichloro-5-(2-hydroxypropan-2-yl)phenoxy]-2-methylpropanoyl}amino)-8-azabicyclo[3.2.1]oct-8-yl]pyridine-3-carboxamide], for which the half-maximal inhibitory concentration (IC50) is below 200 nM.
As for `CC(C)(Oc1cc(C(C)(C)O)c(Cl)cc1Cl)C(=O)N[C@H]1C[C@H]2CC[C@@H](C1)N2c1ccc(C(=O)O)cn1` [Example 474, 6-[3-endo-({2-[2,4-dichloro-5-(2-hydroxypropan-2-yl)phenoxy]-2-methylpropanoyl}amino)-8-azabicyclo[3.2.1]oct-8-yl]pyridine-3-carboxylic acid], the figure is below 2000 nM.
As to `CC(C)(Oc1cc(C(C)(C)O)c(Cl)cc1Cl)C(=O)N[C@H]1C[C@H]2CC[C@@H](C1)N2c1ccc(C(=O)NCC(F)(F)F)cn1` [Example 475, 6-[3-endo-({2-[2,4-dichloro-5-(2-hydroxypropan-2-yl)phenoxy]-2-methylpropanoyl}amino)-8-azabicyclo[3.2.1]oct-8-yl]-N-(2,2,2-trifluoroethyl)pyridine-3-carboxamide], the IC50 was below 200 nM.
Consider `CC(C)(Oc1ccc(Cl)cc1Cl)C(=O)N[C@H]1C[C@H]2CC[C@@H](C1)N2c1ccc(C(=O)NCC(=O)C(F)(F)F)cn1` [Example 476, 6-(3-endo-{[2-(2,4-dichlorophenoxy)-2-methylpropanoyl]amino}-8-azabicyclo[3.2.1]oct-8-yl)-N-(3,3,3-trifluoro-2-oxopropyl)pyridine-3-carboxamide], for which the 50% inhibitory concentration (IC50) was below 200 nM.
On to `CC(C)NC(=O)c1ccc(N2[C@@H]3CC[C@H]2C[C@@H](NC(=O)C(C)(C)Oc2cc(C(C)(C)O)c(Cl)cc2Cl)C3)nc1` [Example 477, 6-[3-endo-({2-[2,4-dichloro-5-(2-hydroxypropan-2-yl)phenoxy]-2-methylpropanoyl}amino)-8-azabicyclo[3.2.1]oct-8-yl]-N-(propan-2-yl)pyridine-3-carboxamide], for which the IC50 was below 200 nM.
For the molecule `C=C(C)c1cc(OC(C)(C)C(=O)N[C@H]2C[C@H]3CC[C@@H](C2)N3c2ccc(C(=O)NCC(F)F)cn2)c(Cl)cc1Cl` [Example 478, 6-[3-endo-({2-[2,4-dichloro-5-(prop-1-en-2-yl)phenoxy]-2-methylpropanoyl}amino)-8-azabicyclo[3.2.1]oct-8-yl]-N-(2,2-difluoroethyl)pyridine-3-carboxamide], the concentration for half-maximal inhibition (IC50) is below 200 nM.
As for `CC(C)(Oc1cc(C(C)(C)O)c(Cl)cc1Cl)C(=O)N[C@H]1C[C@H]2CC[C@@H](C1)N2c1ccc(C(=O)NCC(F)F)c[n+]1[O-]` [Example 479, 6-[3-endo-({2-[2,4-dichloro-5-(2-hydroxypropan-2-yl)phenoxy]-2-methylpropanoyl}amino)-8-azabicyclo[3.2.1]oct-8-yl]-N-(2,2-difluoroethyl)pyridine-3-carboxamide 1-oxide], the figure is below 2000 nM; as for “N-(2,2-difluoroethyl)-6- [3-endo-({2-[2-fluoro-4- (2-hydroxypropan-2- yl)phenoxy]-2- methylpropanoyl}amino)- 8-azabicyclo[3.2.1]oct- 8-yl]pyridine-3- carboxamide [Example 305]”, below 200 nM.
